Like-named read-outs stand apart in the source and are kept apart here.
Assays:
rat aorta = assay: Inhibition of the U46619 induced rat aorta vasoconstriction; format: cell-based; conditions: Rattus norvegicus, contraction by U46619 (142 nM), rat thoracic aorta, 37° C.; read-out: VASOCONSTRICTION RAT AORTA IC 50
Description: (B) Inhibition of the U46619 induced rat aorta vasoconstriction:
male rats weighing about 300 g are put to death by euthanasia; the thoracic aorta is rapidly taken out. A sample of about 1 cm is cut into a spiral, and placed in a vat containing 20 ml of nutrient medium (Krebs-Henseleit) kept a 37° C. and oxygenated (O2 95%, CO2 5%). The contractions are recorded with an isotonic strain gauge. After a rest of 45 mn, supramaximum contractions are provoked by the addition of an analogue of TXA2 (U46619: 142 nM) to the survival medium. A plateau is generally reached after 10 mn of contact, the latter not exceeding 25 mn. A rest of 30 mn and a plurality of rinses take place after each contraction. The products are added 10 mn after U46619 and allowed to rest 15 mn, after which delay the inhibition is measured. The inhibitory concentration 50 (IC) is determined for each compound studied and on a minimum of 3 aortas. The activities of the compounds of the present invention are described in example 108.
(§1) The products of examples 1 to 107 have been tested for platelet aggregation on guinea-pig and on the contraction of the aorta in rat as described previously.

platelets of guinea-pig = assay: Inhibition of the platelet aggregation induced by U46619 (BORN test), guinea-pig platelets; format: cell-based; conditions: read-out: PLATELET AGGREGATION GUINEA-PIG IC 50
Excerpt: (A) Inhibition of the platelet aggregation induced by U46619, a stable analogue of TXA2 (9,11-dideoxy-11α,9α-epoxymethanoprostaglandine F2 α):
The tests determine a concentration of compound which inhibits at 50% (CI50) a liminar aggregation induced by U46619. The activities of the compounds of the present invention are given in example 108.
as §1

Compound	IC50 (rat aorta)	IC50 (platelets of guinea-pig; Cavia porcellus, Platelet)	IC50 (platelets of guinea-pig)
NC(=O)Cc1ccc(CC2(CNS(=O)(=O)c3ccc(Cl)cc3)CCCC2)cc1 [Example 75, 4-[[1-[[[(4-Chlorophenyl)sulfonyl]amino]methyl]cyclopentyl]methyl]benzeneacetamide]	> 1 µM	> 5 µM	
CC1(C)CC(CNS(=O)(=O)c2ccc(Cl)cc2)(Cc2ccc(CC(=O)O)cc2)C1 [Example 89, 4-[[1-[[[(4-Chlorophenyl)sulfonyl]amino]methyl]-3,3-dimethylcyclobutyl]methyl]benzeneacetic acid]	0.03 µM	0.26 µM	
O=C(O)Cc1ccccc1CC1(CNS(=O)(=O)c2ccc(Cl)cc2)CCCC1 [Example 92, 2-[[1-[[[(4-Chlorophenyl)sulfonyl]amino]methyl]cyclopentyl]methyl]benzeneacetic acid]	1 µM	0.37 µM	
O=C1CCC(c2ccc(CC3(CNS(=O)(=O)c4ccc(Cl)cc4)CCCC3)cc2)=NN1 [Example 31, 4-Chloro-N-[[1-[[4-(4,5-dihydro-3-oxo-2H-pyridazin-6-yl)phenyl]methyl]cyclopentyl]methyl]-benzenesulfonamide]	≥ 1 µM	2.5 µM	
O=C(O)Cc1ccc(CC2(CNS(=O)(=O)c3ccc(Cl)cc3)CCC2)cc1 [Example 27, 4-[[1-[[[(4-chlorophenyl)sulfonyl]amino]methyl]cyclobutyl]methyl]benzeneacetic acid]	0.02 µM	0.29 µM	
CSc1ccc(S(=O)(=O)NCC2(Cc3ccc(CC(=O)O)cc3)CCCC2)cc1 [Example 103, 4-[[1-[[[(4-methylthiophenyl]sulfonyl]amino]methyl]cyclopentyl]methyl]benzeneacetic acid]	0.18 µM	1 µM	
O=C(O)Cc1ccc(C[C@@H]2CCC[C@H]2NS(=O)(=O)c2ccc(Cl)cc2)cc1 (relative stereo) [Example 1, Trans-4-[[2-[[(4-chlorophenyl)sulfonyl]amino]cyclopentyl]methyl]-benzeneacetic acid]		0.69 µM	
O=C(O)Cc1ccc(C2(CNS(=O)(=O)c3ccc(Cl)cc3)CCC2)cc1 [Example 13, 4-[1[[[(4-Chlorophenyl)sulfonyl]amino]methyl]cyclobutyl]benzeneacetic acid]	0.06 µM	0.68 µM	
O=C(O)Cc1ccc(C[C@@H]2CCC[C@H]2NS(=O)(=O)c2ccc(Cl)cc2)cc1 (relative stereo) [Example 2, Sodium trans-4-[[2-[[(4-chlorophenyl)sulfonyl]amino]-cyclopentyl]methyl]benzene-acetate]	0.07 µM		0.72 µM
C[S+]([O-])c1ccc(S(=O)(=O)NCC2(Cc3ccc(CC(=O)O)cc3)CCCC2)cc1 (centres unmarked) [Example 84, 4-[[1-[[[(4-Methylsulfinylphenyl)sulfonyl]amino]methyl]cyclopentyl]methyl]benzeneacetic acid]	1 µM	> 5 µM	
CS(=O)(=O)c1ccc(S(=O)(=O)NCC2(Cc3ccc(CCO)cc3)CCCC2)cc1 [Example 44, N-[[1-[[4-(2-Hydroxyethyl)phenyl]methyl]cyclopentyl]methyl]-4-methylsulfonylbenzenesulfonamide]		> 5 µM	
O=C(O)Cc1ccc(CC2(CNS(=O)(=O)c3c(F)c(F)c(F)c(F)c3F)CCCC2)cc1 [Example 100, 4-[[1-[[[(Pentafluorophenyl)sulfonyl]amino]methyl]cyclopentyl]methyl]benzeneacetic acid]	> 1 µM	> 5 µM	
O=C(O)Cc1ccc(CC2(CNS(=O)(=O)c3cccc(Cl)c3)CCCC2)cc1 [Example 52, 4-[[1-[[[(3-Chlorophenyl)sulfonyl]amino]methyl]cyclopentyl]methyl]benzeneacetic acid]	> 1 µM	> 5 µM	
O=C(O)Cc1ccc(CC2(CNS(=O)(=O)c3cccc(C(F)(F)F)c3)CCCC2)cc1 [Example 56, 4-[[1-[[[(3-Trifluoromethylphenyl)sulfonyl]amino]methyl]cyclopentyl]methyl]benzeneacetic acid]	1 µM	5 µM	
CC(C)c1ccc(S(=O)(=O)NCC2(Cc3ccc(CC(=O)O)cc3)CCCC2)cc1 [Example 60, 4-[[1-[[[[4-(1-Methylethyl)phenyl]sulfonyl]amino]methyl]cyclopentyl]methyl]benzeneacetic acid]	> 1 µM	> 5 µM	
O=C(O)Cc1ccc(CC2(CNS(=O)(=O)c3cccs3)CCCC2)cc1 [Example 67, 4-[[1-[[[(Thien-2-yl)sulfonyl]amino]methyl]cyclopentyl]methyl]benzeneaceticacid]	0.28 µM	1.5 µM	

Compound	IC50 (rat aorta)	IC50 (platelets of guinea-pig; Cavia porcellus, Platelet)	IC50 (platelets of guinea-pig)
O=C(O)Cc1ccc(CC2(CNS(=O)(=O)c3ccc(Cl)cc3)CCOCC2)cc1 [Example 88, 4-[[4-[[[(4-Chlorophenyl)sulfonyl]amino]methyl]tetrahydropyran-4-yl]methyl]benzeneacetic acid]	1 µM	0.31 µM	
O=C(O)Cc1ccc(CC2(CNS(=O)(=O)c3ccc(-c4ccccc4)cc3)CCCC2)cc1 [Example 101, 4-[[1-[[([1,1'-Biphenyl-4-yl]sulfonyl)amino]methyl]cyclopentyl]methyl]benzeneacetic acid]	> 1 µM	> 5 µM	
O=C(O)Cc1ccc(CC2(CNS(=O)(=O)c3ccc(Cl)c(Cl)c3)CCCC2)cc1 [Example 26, 4-[[1-[[[(3,4-Dichlorophenyl)sulfonyl]amino]methyl]cyclopentyl]methyl]benzeneacetic acid]	0.46 µM	3.1 µM	
O=C(O)Cc1ccc(CC2(CNS(=O)(=O)c3cccc([N+](=O)[O-])c3)CCCC2)cc1 [Example 58, 4-[[1-[[[(3-Nitrophenyl)sulfonyl]amino]methyl]cyclopentyl]methyl]benzeneacetic acid]	1 µM	6.3 µM	
CC(=O)c1ccc(CC2(CNS(=O)(=O)c3ccc(Cl)cc3)CCCC2)cc1 [Example 17, N-[[1-[(4-Acetylphenyl)methyl]cyclopentyl]methyl]-4-chlorobenzenesulfonamide]	> 1 µM	> 20 µM	
COc1ccc(S(=O)(=O)NCC2(Cc3ccc(CC(=O)O)cc3)CCCC2)cc1 [Example 65, 4-[[1-[[[(4-Methoxyphenyl)sulfonyl]amino]methyl]cyclopentyl]methyl]benzeneacetic acid]	0.27 µM	0.35 µM	
O=C(O)CCNC(=O)Cc1ccc(CC2(CNS(=O)(=O)c3ccc(Cl)cc3)CCCC2)cc1 [Example 76, 3-[[2-[4-[[1-[[[(4-Chlorophenyl)sulfonyl]amino]methyl]cyclopentyl]methyl]phenyl]-1-oxoethyl]amino]propanoic acid]	> 1 µM	2.9 µM	
CCCCCCc1ccc(S(=O)(=O)NCC2(Cc3ccc(CC(=O)O)cc3)CCCC2)cc1 [Example 94, 4-[[1-[[[(4 -Hexylphenyl)sulfonyl]amino]methyl]cyclopentyl]methyl]benzeneacetic acid]	> 1 µM	1.8 µM	
CC(=O)Nc1ccc(S(=O)(=O)NCC2(Cc3ccc(CC(=O)O)cc3)CCCC2)cc1 [Example 85, 4-[[1-[[[(4-acetamidophenyl)sulfonyl]amino]methyl]cyclopentyl]methyl]benzeneacetic acid]	> 1 µM	1.3 µM	
O=S(=O)(NCC1(Cc2ccc(CCO)cc2)CCCC1)c1cccc(Cl)c1 [Example 33, 3-Chloro-N-[[1-[[4-(2-hydroxyethyl)phenyl]methyl]cyclopentyl]methyl]benzenesulfonamide]	> 1 µM	> 5 µM	
O=C(O)Cc1ccc(C[C@@H]2CCCC[C@H]2NS(=O)(=O)c2ccc(Cl)cc2)cc1 (relative stereo) [Example 11, Trans-4-[[2-[[(4-chlorophenyl)sulfonyl]amino]cyclohexyl]methyl]benzeneacetic acid]	0.05 µM	0.39 µM	
O=C(O)Cc1ccc(CC2(CNS(=O)(=O)c3ccc(Br)cc3)CCCC2)cc1 [Example 53, 4-[[1-[[[(4-Bromophenyl)sulfonyl]amino]methyl]cyclopentyl]methyl]benzeneacetic acid]	0.01 µM	0.16 µM	
O=S(=O)(NCC1(Cc2ccc(CCO)cc2)CCCC1)c1ccc(Cl)cc1 [Example 28, 4-Chloro-N-[[1-[[4-(2-hydroxyethyl)phenyl]methyl]cyclopentyl]methyl]benzenesulfonamide]	> 1 µM	2.6 µM	
O=C(O)Cc1ccc(CC2(CNS(=O)(=O)c3ccc4ccccc4c3)CCCC2)cc1 [Example 102, 4-[[1-[[[(Naphthalen-2-yl)sulfonyl]amino]methyl]cyclopentyl]methyl]benzeneacetic acid]		1 µM	
O=S(=O)(NCC1(Cc2ccc(CCO)cc2)CCCC1)c1ccc(OC(F)(F)F)cc1 [Example 45, N-[[1-[[4-(2-Hydroxyethyl)phenyl]methyl]cyclopentyl]methyl]-4-trifluoromethoxybenzenesulfonamide]		> 5 µM	
O=C(O)Cc1ccc(CC2(CNS(=O)(=O)c3cccc4cccnc34)CCCC2)cc1 [Example 106, 4-[[1-[[[(Quinol-8-yl)sulfonyl]amino]methyl]cyclopentyl]methyl]benzeneacetic acid]		> 5 µM	

Source: US5387709A, “Substituted sulfonamides, process of preparation and medicines containing same” (Lipha Lyonnaise Industrielle Pharmaceutique, priority 1990, dated 1995)
